Converted amounts (≈) assume the structure as drawn.
Assay: Solubility by shake flask method

Row | Solubility | SMILES
1 | 276 nM (≈ 0.106 µg/mL) | CCOC(=O)C1=C(C)NC(C)=C(C(=O)OC)C1c1cccc(Cl)c1Cl (configuration not stated) [FELODIPINE]
2 | 12.7 nM (≈ 0.00623 µg/mL) | CCC1=C(C)CN(C(=O)NCCc2ccc(S(=O)(=O)NC(=O)N[C@H]3CC[C@H](C)CC3)cc2)C1=O [GLIMEPIRIDE]
3 | 89.1 nM (≈ 0.044 µg/mL) | COc1ccc(Cl)cc1C(=O)NCCc1ccc(S(=O)(=O)NC(=O)NC2CCCCC2)cc1 [GLYBURIDE]
4 | 3.3 nM (≈ 0.00233 µg/mL) | CCC(C)n1ncn(-c2ccc(N3CCN(c4ccc(OCC5COC(Cn6cncn6)(c6ccc(Cl)cc6Cl)O5)cc4)CC3)cc2)c1=O (configuration not stated) [ITRACONAZOLE]
5 | 11.6 nM (≈ 0.00547 µg/mL) | CC(C)(C)c1ccc(C(O)CCCN2CCC(C(O)(c3ccccc3)c3ccccc3)CC2)cc1 (configuration not stated) [TERFENADINE]
6 | < 15.9 nM | Cc1c(C)c2c(c(C)c1O)CCC(C)(COc1ccc(CC3SC(=O)NC3=O)cc1)O2 (configuration not stated) [TROGLITAZONE]

The remaining lines, values behind:

Row | SMILES | Solubility
7 | CCCSc1ccc2nc(NC(=O)OC)[nH]c2c1 [ALBENDAZOLE] | 983 nM (≈ 0.261 µg/mL)
8 | COc1ccc(CCN2CCC(Nc3nc4ccccc4n3Cc3ccc(F)cc3)CC2)cc1 [ASTEMIZOLE] | 66.8 nM (≈ 0.0306 µg/mL)
9 | COc1ccccc1OCCNCC(O)COc1cccc2[nH]c3ccccc3c12 (configuration not stated) [CARVEDILOL] | 713 nM (≈ 0.29 µg/mL)
10 | COc1ccc2c(c1)c(CC(=O)O)c(C)n2C(=O)c1ccc(Cl)cc1 [INDOMETHACIN] | 1133.3 nM (≈ 0.405 µg/mL)
11 | Cc1c(C(=O)NN2CCCCC2)nn(-c2ccc(Cl)cc2Cl)c1-c1ccc(Cl)cc1 [RIMONABANT] | 96.5 nM (≈ 0.0448 µg/mL)
12 | Cc1c(Cl)cccc1Nc1ccccc1C(=O)O [TOLFENAMIC ACID] | 13.6 nM (≈ 0.00356 µg/mL)

Source: ChEMBL document CHEMBL1137616, “Poorly soluble marketed drugs display solvation limited solubility” (J Med Chem, 2007)
